In patent US12403144B2, “HECT E3 ligase inhibitors and uses thereof” (IFOM FONDAZIONE ISTITUTO FIRC DI ONCOLOGIA MOLECOLARE, priority 2019, dated 2025):

Target: T1, HECT of NEDD4 L553F (Homo sapiens, UniProt P46934, L972F)
T1 construct: 250 nM untagged HECT of NEDD4 WT or NEDD4 L553F or NEDD4L WT; made in house
T1 sequence (P46934 519-900 isoform P46934-4 L553F limits assumed): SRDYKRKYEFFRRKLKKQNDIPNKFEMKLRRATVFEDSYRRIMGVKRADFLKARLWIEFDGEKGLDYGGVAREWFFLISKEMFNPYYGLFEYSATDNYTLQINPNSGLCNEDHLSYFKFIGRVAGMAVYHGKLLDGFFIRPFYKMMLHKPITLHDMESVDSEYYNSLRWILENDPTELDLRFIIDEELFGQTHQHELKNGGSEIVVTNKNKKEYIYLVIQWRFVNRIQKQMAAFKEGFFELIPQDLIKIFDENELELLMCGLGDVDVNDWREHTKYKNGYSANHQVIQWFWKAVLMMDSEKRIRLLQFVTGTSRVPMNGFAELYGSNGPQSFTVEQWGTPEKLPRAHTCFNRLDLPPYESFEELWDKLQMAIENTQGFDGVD
Experiment: In vitro ubiquitination assay detected by western blot, HECT NEDD4 L553F mutant
Assay type: biochemical
Settings: 10 μM; FIG. 4c
Method: In vitro ubiquitination assay performed with HECT NEDD4 WT and HECT NEDD4L WT in presence of the indicated compounds at 10 μM concentration. The symbol “−” indicates the DMSO-treated sample. Reactions were stopped after 1 hour with Laemmli buffer. […] HECT of NEDD4 bound to compound 12 is shown in light grey, superposed with the structure of HECT of NEDD4L (pdb entry 2oni, version 1.2, 13 Jul. 2011, shown in dark grey). c. In vitro ubiquitination assay using the HECT of NEDD4 WT (HECT WT) and L553F (HECT L553F) was performed in presence of compound 12 at 10 μM concentration. The symbol “-” indicates the DMSO-treated sample. Immunoblot was performed with the anti-ubiquitin antibody (upper panel).
An in vitro ubiquitination assay followed by western blot detection was used to determine the selectivity of the different compounds. The full protocol is described in (E. Maspero et al. Methods Mol Biol. 1449:153-60 (2016)). Briefly, the assay was performed with bacterially purified enzymes (20 nM E1, 250 nM of purified His6-tagged UBE2D3 and 250 nM untagged HECT of NEDD4 WT or NEDD4 L553F or NEDD4L WT) and 1 μM of untagged ubiquitin in ubiquitination buffer (25 mM Tris-HCl, pH 7.6, 5 mM MgCl2, 100 mM NaCl, 0.2 μM DTT). […] The binding pocket determined by X-ray is highly conserved among the various members of the NEDD4 family with few important exceptions. […]

Structure (SMILES): CCOC(=O)/C=C/CNCCCCN1c2ccccc2CCc2ccc(Cl)cc21.O=C(O)/C=C\C(=O)O [Compound 12, Ethyl (E)-4-[4-(3-chloro-10,11-dihydro-5H-dibenzo[b,f]azepin-5-yl)butylamino]but-2-enoate maleate]
- activity of compound on HECT NEDD4 L553F mutant (anti-ubiquitin immunoblot): fully abrogate the activity
